According to US10975077B2 (Novira Therapeutics, Inc., priority 2016, dated 2021):

These compounds were tested on HBV (encapsidated HBV DNA, HepG2.2.15 cells) (assay: HBV replication inhibition assay, BDNA assay in HepG2.2.15 cells). Settings: Activity in BDNA-assay.
Format: cell-based
Description: HBV replication inhibition by the disclosed compounds were determined in cells infected or transfected with HBV, or cells with stably integrated HBV, such as HepG2.2.15 cells (Sells et al. 1987). In this example, HepG2.2.15 cells were maintained in cell culture medium containing 10% fetal bovine serum (FBS), Geneticin, L-glutamine, penicillin and streptomycin. HepG2.2.15 cells were seeded in 96-well plates at a density of 40,000 cells/well and were treated with serially diluted compounds at a final DMSO concentration of 0.5% either alone or in combination by adding drugs in a checker box format. Cells were incubated with compounds for three days, after which medium was removed and fresh medium containing compounds was added to cells and incubated for another three days. At day 6, supernatant was removed and treated with DNase at 37° C. for 60 minutes, followed by enzyme inactivation at 75° C. for 15 minutes. Encapsidated HBV DNA was released from the virions and covalently linked HBV polymerase by incubating in lysis buffer (Affymetrix QS0010) containing 2.5 μg proteinase K at 50° C. for 40 minutes. HBV DNA was denatured by addition of 0.2 M NaOH and detected using a branched DNA (BDNA) QuantiGene assay kit according to manufacturer recommendation (Affymetrix). HBV DNA levels were also quantified using qPCR, based on amplification of encapsidated HBV DNA extraction with QuickExtraction Solution (Epicentre Biotechnologies) and amplification of HBV DNA using HBV specific PCR probes that can hybridize to HBV DNA and a fluorescently labeled probe for quantitation. In addition, cell viability of HepG2.2.15 cells incubated with test compounds alone or in combination was determined by using CellTitre-Glo reagent according to the manufacturer protocol (Promega). The mean background signal from wells containing only culture medium was subtracted from all other samples, and percent inhibition at each compound concentration was calculated by normalizing to signals from HepG2.2.15 cells treated with 0.5% DMSO using equation E1. % inhibition=(DMSOave−Xi)/DMSOave×100% E1: where DMSOave is the mean signal calculated from the wells that were treated with DMSO control (0% inhibition control) and Xi is the signal measured from the individual wells. EC50 values, effective concentrations that achieved 50% inhibitory effect, were determined by non-linear fitting using Graphpad Prism software (San Diego, Calif.) and equation E2: Y=Y min+(Y max −Y min)/(1+10(Log EC50−X)×HillSlope) E2: […]
where Y represents percent inhibition values and X represents the logarithm of compound concentrations.
Selected disclosed compounds were assayed in the HBV replication assay (BDNA assay), as described above and a representative group of these active compounds is shown in Table 6.

Structure (SMILES)	EC50
CCC(O)C1CN(C)C(=O)c2c3c(nn2C1)CCN(C(=O)Nc1ccc(F)c(C#N)c1F)C3 (single isomer, unassigned) [Compound 098_E3, (S*)—N-(3-cyano-2,4-difluorophenyl)-8-((S*)-1-hydroxypropyl)-10-methyl-11-oxo-1,3,4,7,8,9,10,11-octahydro-2H-pyrido[4′,3′:3,4]pyrazolo[1,5-a][1,4]diazepine-2-carboxamide]	100 to 500 nM
CCC(O)C1CN(C)C(=O)c2c3c(nn2C1)CCN(C(=O)Nc1ccc(F)c(C#N)c1F)C3 (single isomer, unassigned) [Compound 098_E4, (R*)—N-(3-cyano-2,4-difluorophenyl)-8-((R*)-1-hydroxypropyl)-10-methyl-11-oxo-1,3,4,7,8,9,10,11-octahydro-2H-pyrido[4′,3′:3,4]pyrazolo[1,5-a][1,4]diazepine-2-carboxamide]	500 to 1000 nM
CCC(O)C1CN(C)C(=O)c2c3c(nn2C1)CCN(C(=O)Nc1ccc(F)c(C(F)(F)F)c1)C3 (single isomer, unassigned) [Compound 099_E1, (R*)—N-(4-fluoro-3-(trifluoromethyl)phenyl)-8-((S*)-1-hydroxypropyl)-10-methyl-11-oxo-1,3,4,7,8,9,10,11-octahydro-2H-pyrido[4′,3′:3,4]pyrazolo[1,5-a][1,4]diazepine-2-carboxamide]	1 to 100 nM
CCC(O)C1CN(C)C(=O)c2c3c(nn2C1)CCN(C(=O)Nc1ccc(F)c(C(F)(F)F)c1)C3 (single isomer, unassigned) [Compound 099_E2, (S*)—N-(4-fluoro-3-(trifluoromethyl)phenyl)-8-((R*)-1-hydroxypropyl)-10-methyl-11-oxo-1,3,4,7,8,9,10,11-octahydro-2H-pyrido[4′,3′:3,4]pyrazolo[1,5-a][1,4]diazepine-2-carboxamide]	100 to 500 nM
CCC(O)C1CN(C)C(=O)c2c3c(nn2C1)CCN(C(=O)Nc1ccc(F)c(C(F)(F)F)c1)C3 (single isomer, unassigned) [Compound 099_E3, (S*)—N-(4-fluoro-3-(trifluoromethyl)phenyl)-8-((S*)-1-hydroxypropyl)-10-methyl-11-oxo-1,3,4,7,8,9,10,11-octahydro-2H-pyrido[4′,3′:3,4]pyrazolo[1,5-a][1,4]diazepine-2-carboxamide]	1 to 100 nM
CCC(O)C1CN(C)C(=O)c2c3c(nn2C1)CCN(C(=O)Nc1ccc(F)c(C(F)(F)F)c1)C3 (single isomer, unassigned) [Compound 099_E4, (R*)—N-(4-fluoro-3-(trifluoromethyl)phenyl)-8-((R*)-1-hydroxypropyl)-10-methyl-11-oxo-1,3,4,7,8,9,10,11-octahydro-2H-pyrido[4′,3′:3,4]pyrazolo[1,5-a][1,4]diazepine-2-carboxamide]	100 to 500 nM
CN1CC(CNCC(F)F)Cn2nc3c(c2C1=O)CN(C(=O)Nc1ccc(F)c(C(F)(F)F)c1)CC3 (single isomer, unassigned) [Compound 119_E1, (R*)-8-(((2,2-difluoroethyl)amino)methyl)-N-(4-fluoro-3-(trifluoromethyl)phenyl)-10-methyl-11-oxo-1,3,4,7,8,9,10,11-octahydro-2H-pyrido[4′,3′:3,4]pyrazolo[1,5-a][1,4]diazepine-2-carboxamide]	100 to 500 nM
CN1CC(CNCC(F)F)Cn2nc3c(c2C1=O)CN(C(=O)Nc1ccc(F)c(C(F)(F)F)c1)CC3 (single isomer, unassigned) [Compound 119_E2, (S*)-8-(((2,2-difluoroethyl)amino)methyl)-N-(4-fluoro-3-(trifluoromethyl)phenyl)-10-methyl-11-oxo-1,3,4,7,8,9,10,11-octahydro-2H-pyrido[4′,3′:3,4]pyrazolo[1,5-a][1,4]diazepine-2-carboxamide]	1 to 100 nM
C=CC(O)C1CN(C)C(=O)c2c3c(nn2C1)CC(C)N(C(=O)Nc1ccc(F)c(C#N)c1)C3 (single isomer, unassigned) [Compound 123_D1, (3R,8S*)—N-(3-cyano-4-fluorophenyl)-8-((R*)-1-hydroxyallyl)-3,10-dimethyl-11-oxo-1,3,4,7,8,9,10,11-octahydro-2H-pyrido[4′,3′:3,4]pyrazolo[1,5-a][1,4]diazepine-2-carboxamide]	1 to 100 nM
C=CC(O)C1CN(C)C(=O)c2c3c(nn2C1)CC(C)N(C(=O)Nc1ccc(F)c(C#N)c1)C3 (single isomer, unassigned) [Compound 123_D2, (3R,8S*)—N-(3-cyano-4-fluorophenyl)-8-((S*)-1-hydroxyallyl)-3,10-dimethyl-11-oxo-1,3,4,7,8,9,10,11-octahydro-2H-pyrido[4′,3′:3,4]pyrazolo[1,5-a][1,4]diazepine-2-carboxamide]	100 to 500 nM
CN1CC(CNCC(F)F)Cn2nc3c(c2C1=O)CN(C(=O)Nc1cc(Br)c(F)cc1F)CC3 (single isomer, unassigned) [Compound 125_E1, (R*)—N-(5-bromo-2,4-difluorophenyl)-8-(((2,2-difluoroethyl)amino)methyl)-10-methyl-11-oxo-1,3,4,7,8,9,10,11-octahydro-2H-pyrido[4′,3′:3,4]pyrazolo[1,5-a][1,4]diazepine-2-carboxamide]	100 to 500 nM

Same assay, conditions: Hepatitis B virus, HepG2.2.15, Activity in BDNA-assay

Structure (SMILES)	EC50
CCC(O)C1CN(C)C(=O)c2c3c(nn2C1)CCN(C(=O)Nc1ccc(F)c(Cl)c1F)C3 (single isomer, unassigned) [Compound 100_E1, (R*)—N-(3-chloro-2,4-difluorophenyl)-8-((S*)-1-hydroxypropyl)-10-methyl-11-oxo-1,3,4,7,8,9,10,11-octahydro-2H-pyrido[4′,3′:3,4]pyrazolo[1,5-a][1,4]diazepine-2-carboxamide]	1 to 100 nM
CCC(O)C1CN(C)C(=O)c2c3c(nn2C1)CCN(C(=O)Nc1ccc(F)c(Br)c1F)C3 (single isomer, unassigned) [Compound 101_E1, (R*)—N-(3-bromo-2,4-difluorophenyl)-8-((S*)-1-hydroxypropyl)-10-methyl-11-oxo-1,3,4,7,8,9,10,11-octahydro-2H-pyrido[4′,3′:3,4]pyrazolo[1,5-a][1,4]diazepine-2-carboxamide]	1 to 100 nM
CCC(O)C1CN(C)C(=O)c2c3c(nn2C1)CCN(C(=O)Nc1ccc(F)c(C(F)(F)F)c1F)C3 (single isomer, unassigned) [Compound 103_E1, (R*)—N-(2,4-difluoro-3-(trifluoromethyl)phenyl)-8-((S*)-1-hydroxypropyl)-10-methyl-11-oxo-1,3,4,7,8,9,10,11-octahydro-2H-pyrido[4′,3′:3,4]pyrazolo[1,5-a][1,4] diazepine-2-carboxamide]	1 to 100 nM
CCC(O)C1CN(C)C(=O)c2c3c(nn2C1)CCN(C(=O)Nc1cc(F)c(F)c(F)c1)C3 (single isomer, unassigned) [Compound 104_E1, (R*)-8-((S*)-1-hydroxypropyl)-10-methyl-11-oxo-N-(3,4,5-trifluorophenyl)-1,3,4,7,8,9,10,11-octahydro-2H-pyrido[4′,3′:3,4]pyrazolo[1,5-a][1,4] diazepine-2-carboxamide]	1 to 100 nM
CCC(O)C1CN(C)C(=O)c2c3c(nn2C1)CCN(C(=O)Nc1cc(F)c(F)c(F)c1F)C3 (single isomer, unassigned) [Compound 105_E1, (R*)-8-((S*)-1-hydroxypropyl)-10-methyl-11-oxo-N-(2,3,4,5-tetrafluorophenyl)-1,3,4,7,8,9,10,11-octahydro-2H-pyrido[4′,3′:3,4]pyrazolo[1,5-a][1,4]diazepine-2-carboxamide]	1 to 100 nM
CN1CC(CNCC(F)F)Cn2nc3c(c2C1=O)CN(C(=O)Nc1ccc(F)c(C#N)c1)CC3 (single isomer, unassigned) [Compound 118_E1, (R*)—N-(3-cyano-4-fluorophenyl)-8-(((2,2-difluoroethyl)amino)methyl)-10-methyl-11-oxo-1,3,4,7,8,9,10,11-octahydro-2H-pyrido[4′,3′:3,4]pyrazolo[1,5-a][1,4]diazepine-2-carboxamide]	100 to 500 nM
CN1CC(CNCC(F)F)Cn2nc3c(c2C1=O)CN(C(=O)Nc1ccc(F)c(C#N)c1)CC3 (single isomer, unassigned) [Compound 118_E2, (S*)—N-(3-cyano-4-fluorophenyl)-8-(((2,2-difluoroethyl)amino)methyl)-10-methyl-11-oxo-1,3,4,7,8,9,10,11-octahydro-2H-pyrido[4′,3′:3,4]pyrazolo[1,5-a][1,4]diazepine-2-carboxamide]	1 to 100 nM
